Experimental data published in patent US10683278B2 (JINAN UNIVERSITY, priority 2015, dated 2020).

How the values were obtained:
Molm-13 cells = assay: Inhibition of proliferation of Molm-13 cells (CCK-8); type: cell-based; conditions: Homo sapiens, 72 h, mean±standard deviation of two independent tests
Procedure: [Worded in the source for another cell line; this cell line is reported under the same test.] (§1) 12000 g of compounds were centrifuged for 5 min, DMSO was added to make a 10^−2M stock solution, vortexed uniformly and sonicated for 10 min for standby application, and stored at −40° C. The compounds were diluted from the stock solution with saline to 10 times the concentration to be tested (concentration of DMSO in the system being no more than 0.5%) during the test.
(§2) The inhibitory effect of the compounds on the proliferation of MV4-11 cells was detected using a CCK-8 cell counting kit (Dojindo). The specific steps are as follows: the MV4-11 cells in logarithmic growth phase were seeded into a 96-well culture plate at a suitable density in 90 μL/well, cultured overnight, compounds at different concentrations were then added and acted on cells for 72 hr, and the solvent control group (negative control) was set up. The effect of the compounds on cell proliferation was detected using a CCK-8 cell counting kit (Dojindo) after the compounds had acted on the cells for 72 h. 10 μL of CCK-8 reagent was added to each well, same was placed in an incubator at 37° C. for 2-4 hours, and the reading from the full-wavelength microwell plate ELIASA SpectraMax 190 was performed with a wavelength of 450 nm.
(§3) IC50 value was calculated using a software included with ELIASA by the four-parameter regression.
(§4) IC50 for the inhibition of the compounds on each stain of cells was derived from two independent repeated tests, and the results are shown as the mean±standard deviation.

[1] = target: T1, FLT-3 kinase domain recombinant protein (Homo sapiens, UniProt P36888); assay: Inhibition rate on FLT3 kinase (ELISA); type: biochemical; conditions: two values per compound; for inhibition at 0.01 µM / inhibition at 0.1 µM / inhibition at 1 µM: read-out: Inhibition rate (%) against receptor tyrosine kinase FLT-3
T1 construct: 50 μL FLT-3 kinase domain recombinant protein diluted with reaction buffer to initiate the reaction
T1 sequence (P36888 610-943 limits assumed): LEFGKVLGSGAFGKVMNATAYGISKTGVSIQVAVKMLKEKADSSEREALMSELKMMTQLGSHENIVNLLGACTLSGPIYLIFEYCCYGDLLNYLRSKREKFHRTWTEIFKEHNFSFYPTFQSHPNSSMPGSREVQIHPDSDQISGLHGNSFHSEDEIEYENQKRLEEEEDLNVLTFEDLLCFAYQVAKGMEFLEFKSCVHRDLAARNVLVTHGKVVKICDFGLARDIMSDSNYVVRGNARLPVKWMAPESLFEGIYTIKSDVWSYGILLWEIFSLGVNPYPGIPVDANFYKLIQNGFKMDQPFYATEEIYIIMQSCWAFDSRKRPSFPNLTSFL
Procedure, shortened: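 Recombinant FLT-3 kinase domain phosphorylated coated Poly(Glu,Tyr) 4:1 with ATP in HEPES pH 7.4 buffer with MgCl2, MnCl2, Na3VO4, DTT, 1 h at 37 °C; 1% DMSO final. Phosphotyrosine detected with PY99 and HRP anti-mouse antibody, OPD development, absorbance at 490 nm.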

MV4-11 cells = assay: Inhibition of proliferation of MV4-11 cells (CCK-8); type: cell-based; conditions: Homo sapiens, 72 h, mean±standard deviation of two independent tests
Procedure: as §1, §2, §3, §4

| Structure (SMILES) | IC50 (Molm-13 cells) [nM] | Inhibition rate (%) against receptor tyrosine kinase FLT-3 ([1]; compound 10 nM, 0.01 µM) [%] | inhibition at 0.01 µM ([1]; compound 10 nM) [%] | Inhibition rate (%) against receptor tyrosine kinase FLT-3 ([1]; compound 100 nM, 0.1 µM) [%] | inhibition at 0.1 µM ([1]; compound 100 nM) [%] | Inhibition rate (%) against receptor tyrosine kinase FLT-3 ([1]; compound 1000 nM, 1 µM) [%] | inhibition at 1 µM ([1]; compound 1000 nM) [%] | IC50 (MV4-11 cells) [nM] |
| --- | --- | --- | --- | --- | --- | --- | --- | --- |
| CCc1ccc2c(c1)c(=O)c(C(=O)Nc1ccc(Oc3ncnc4cc(OCCCN5CCOCC5)c(OC)cc34)c(F)c1)c(C)n2C [GDL5000123, 6-ethyl-N-(3-fluoro-4-((6-methoxy-7-(3-morpholinopropoxy)quinazolin-4-yl)oxy)phenyl)-1,2-dimethyl-4-oxo-1,4-dihydroquinoline-3-carboxamide] | 3.5 ± 3.2 | 74.8 | 75.4 | 83.8 | 89.3 | 97.4 | 104 | 51.7 ± 17.6 |
| CCc1ccc2c(c1)c(=O)c(C(=O)Nc1ccc(Oc3ncnc4cc(OCCN(C)C)c(OC)cc34)c(F)c1)c(C)n2C [GDL5000128, N-(4-(7-(2-(dimethylamino)ethoxy)-6-methoxyquinazolin-4-yloxy)-3-fluorophenyl)-6-ethyl-1,2-dimethyl-4-oxo-1,4-dihydroquinoline-3-carboxamide] | 50.2 ± 9.9 | 71.7 | 59.1 | 79.5 | 75.4 | – | 87.9 | 57.3 ± 10.4 |
| CCc1ccc2c(c1)c(=O)c(C(=O)Nc1ccc(Oc3ncnc4cc(OCCCN5CCN(C)CC5)c(OC)cc34)c(F)c1)c(C)n2C [GDL5000138, 6-ethyl-N-(3-fluoro-4-(6-methoxy-7-(3-(4-methylpiperazin-1-yl)propoxy)quinazolin-4-yloxy)phenyl)-1,2-dimethyl-4-oxo-1,4-dihydroquinoline-3-carboxamide] | 3.9 ± 2.9 | 66.4 | 67.7 | 83.0 | 81.5 | 98.1 | 98 | < 2 |
| COc1cc2ncnc(Oc3ccc(NC(=O)c4cn5c6c(c(N7CCC(O)CC7)c(F)cc6c4=O)CCC5C)cc3F)c2cc1OC (stereo not drawn) [TL4830031, N-(4-((6,7-dimethoxyquinazolin-4-yl)oxy)-3-fluorophenyl)-9-fluoro-8-(4-hydroxypiperidin-1-yl)-5-methyl-1-oxo-1,5,6,7-tetrahydropyrido[3,2,1-ij]quinoline-2-carboxamide] | 239 ± 21.9 | 57.9 | 56.8 | 65.8 | 71.4 | 76.4 | 79.5 | > 500 |

Continued, values first:

| IC50 (Molm-13 cells) [nM] | Inhibition rate (%) against receptor tyrosine kinase FLT-3 ([1]; compound 10 nM, 0.01 µM) [%] | inhibition at 0.01 µM ([1]; compound 10 nM) [%] | Inhibition rate (%) against receptor tyrosine kinase FLT-3 ([1]; compound 100 nM, 0.1 µM) [%] | inhibition at 0.1 µM ([1]; compound 100 nM) [%] | Inhibition rate (%) against receptor tyrosine kinase FLT-3 ([1]; compound 1000 nM, 1 µM) [%] | inhibition at 1 µM ([1]; compound 1000 nM) [%] | IC50 (MV4-11 cells) [nM] | Structure (SMILES) |
| --- | --- | --- | --- | --- | --- | --- | --- | --- |
| – | 41.9 | 48.7 | 70.4 | 76.3 | 80.7 | 86.6 | – | CCc1ccc2c(c1)c(=O)c(C(=O)Nc1ccc(Oc3ncnc4[nH]cc(-c5ccccc5)c34)c(F)c1)c(C)n2C [TL4800075, 6-ethyl-N-(3-fluoro-4-((5-phenyl-7H-pyrrolo[2,3-d]pyrimidin-4-yl)oxy)phenyl)-1,2-dimethyl-4-oxo-1,4-dihydroquinoline-3-carboxamide] |
| 102 ± 10.9 | 67.0 | 70.7 | 77.1 | 86.4 | 83.2 | 84.7 | 194 ± 104 | CCc1ccc2c(c1)c(=O)c(C(=O)Nc1ccc(Oc3ncnc4cc(OC)c(OC)cc34)c(F)c1)c(C)n2C [TL4800191, N-(4-(6,7-dimethoxyquinazolin-4-yloxy)-3-fluorophenyl)-6-ethyl-1,2-dimethyl-4-oxo-1,4-dihydroquinoline-3-carboxamide] |
